Like-named read-outs stand apart in the source and are kept apart here. Where a SMILES comes first, the peptide text is derived from it. [ ]: non-standard residue; d: D form. Hmp(2R,3S) = CC[C@H](C)[C@@H](O)C(=O)O; Sta = CC(C)C[C@H](N)[C@@H](O)CC(=O)O; dNMeF = CN[C@H](Cc1ccccc1)C(=O)O; NMeQ = CN[C@@H](CCC(N)=O)C(=O)O
Assays:
[1] = test system: CatE; settings: cited from earlier work
[2] = test system: MDA-MB-231 cells; assay: MTT cell viability assay; type: cell-based, human; settings: MDA-MB-231, 48 h treatment

Compound: CC[C@H](C)[C@H](NC(=O)C[C@H](O)[C@H](CC(C)C)NC(=O)[C@H](CCC(N)=O)N(C)C(=O)[C@H](CC(C)C)NC(=O)[C@H](O)[C@@H](C)CC)C(=O)NCC(=O)N(C)[C@H](Cc1ccccc1)C(=O)N1CCC[C@H]1C(=O)OC [Grassystatin C, grassystatin C] ({Hmp(2R,3S)}-L[NMeQ][Sta]IG[dNMeF]P-OMe)
- preference for CatE compared to CatD [1]: about 30 fold
- preference for CatE compared to CatD ([1]; listed as grassystatin C): > 30 fold

Compound: TRAIL: tumor necrosis factor-related apoptosis-inducing ligand
- IC50 (cell viability) [2]: 0.025 µg/mL

— paper PMC12024474 (RSC Medicinal Chemistry, 2025)
